Reference: US7261876B2, “Multivalent constructs for therapeutic and diagnostic applications” (Bracco International BV, priority 2002, dated 2007)
“Also recorded” adds a separate entry of the source. Positions of bridges follow the written chain, without caps; N, C: chain ends. Non-standard residues stand in square brackets, D forms with d. Residues, ends and D or L forms follow the SMILES beside them. Lys(ivDde) = CC(C)CC(NCCCC[C@H](N)C(=O)O)=C1C(=O)CC(C)(C)CC1=O

Assays:
KDR = target: T1, KDR (Homo sapiens, UniProt P35968); experiment: VEGF-induced KDR receptor activation (phosphorylation) assay in HUVECs; assay type: cell-based; settings: for inhibition of VEGF-induced activation of KDR: concentration not given
T1 construct: host or cells: HUVEC
Description: Human umbilical vein endothelial cells (HUVECs) (Biowhittaker Cat No. CC-2519) were obtained frozen on dry ice and stored in liquid nitrogen until thawing. These cells were thawed, passaged, and maintained as described by the manufacturer in EGM-MV medium (Biowhittaker Cat No. CC-3125). Cells seeded into 100 mm dishes were allowed to become confluent, then cultured overnight in basal EBM medium lacking serum (Biowhittaker Cat No. CC-3121). The next morning, the medium in the dishes was replaced with 10 mL fresh EBM medium at 37° C. containing either no additive (negative control), 5 ng/mL VEGF (Calbiochem Cat No. 676472 or Peprotech Cat No. 100-20) (positive control), or 5 ng/mL VEGF plus the indicated concentration of the KDR-binding peptide (prepared as described above). In some cases, a neutralizing anti-KDR antibody (Cat No. AF357, R&D Systems) was used as a positive control inhibitor of activation. In such cases, the antibody was pre-incubated with the test cells for 30 min at 37° C. prior to the addition of fresh medium containing both VEGF and the antibody. After incubating the dishes 5 min in a 37° C. tissue culture incubator they were washed three times with ice-cold Dulbecco's phosphate buffered saline (D-PBS) containing calcium and magnesium and placed on ice without removing the last 10 mL of D-PBS. The first dish of a set was drained and 0.5 mL of Triton lysis buffer was added (20 mM Tris base pH 8.0, 137 mM NaCl, 10% glycerol, 1% Triton X-100, 2 mM EDTA (ethylenediaminetetraacetic acid), 1 mM PMSF (phenylmethylsulfonylfluoride), 1 mM sodium orthovanadate, 100 mM NaF, 50 mM sodium pyrophosphate, 10 μg/mL leupeptin, 10 μg/mL aprotinin). The cells were quickly scraped into the lysis buffer using a cell scraper (Falcon, Cat No. 353087), dispersed by pipeting up and down briefly, and the resulting lysate was transferred to the second drained dish of the pair. Another 0.5 mL of lysis buffer was used to rinse out the first dish then transferred to the second dish, which was then also scraped and dispersed. The pooled lysate from the two dishes was transferred to a 1.5 mL Eppindorf tube. The above procedure was repeated for each of the controls and test samples (KDR-binding peptides), one at a time. The lysates were stored on ice until all the samples had been processed. At this point samples were either stored at −70° C. or processed to the end of the assay without interruption.
The lysates, either freshly prepared or frozen and thawed, were precleared by adding 20 μL of protein A-sepharose beads (Sigma 3391, preswollen in D-PBS), washed three times with a large excess of D-PBS, reconstituted with 6 mL D-PBS to generate a 50% slurry) and rocked at 4° C. for 30 min. The beads were pelleted by centrifugation for 2 min in a Picofuge (Stratgene, Cat No. 400550) at 2000×g and the supernatants transferred to new 1.5 mL tubes. 20 μg of anti-Flk-1 antibody (Santa Cruz Biotechnology, Cat No. sc-504) was added to each tube, and the tubes were incubated overnight (16–18 h) at 4° C. on a rotator to immunoprecipitate KDR. The next day 40 μL of protein A-sepharose beads were added to the tubes, which were then incubated at 4° C. for 1 h on a rotator. The beads in each tube were subsequently washed three times by centrifuging for 2 min in a Picofuge, discarding the supernatant, and dispersing the beads in 1 mL freshly added TBST buffer (20 mM Tris base pH 7.5, 137 mM NaCl, and 0.1% Tween 20). After centrifuging and removing the liquid from the last wash, 40 μL of Laemmli SDS-PAGE sample buffer (Bio-Rad, Cat No. 161-0737) was added to each tube and the tubes were capped and boiled for 5 min. After cooling, the beads in each tube were pelleted by centrifuging and the supernatants containing the immunoprecipitated KDR were transferred to new tubes and used immediately or frozen and stored at −70° C. for later analysis.
Detection of phosphorylated KDR as well as total KDR in the immunoprecipitates was carried out by immunoblot analysis. […]

Soluble KDR receptor = target: T2, Soluble KDR receptor (Homo sapiens, UniProt P35968); experiment: Surface plasmon resonance (Biacore 3000) of P9/P10 heterodimers; assay type: binding
T2 construct: Soluble KDR receptor was cross-linked to the dextran surface of a CM5 sensor chip

[1] = target: T3, KDR expressed by transfected 293H cells (Homo sapiens, UniProt P35968); experiment: Competition with 125I-labeled VEGF for binding to KDR-transfected 293H cells
T3 construct: Both PCR products were digested with Not1 and ligated together to create the full-length receptor; V5-His (encoded by the vector); expressed in transfected cells; host or cells: 293H cells (Invitrogen cat. # 11631), transient lipofectamine 2000 transfection
T3 sequence (P35968 20-1356): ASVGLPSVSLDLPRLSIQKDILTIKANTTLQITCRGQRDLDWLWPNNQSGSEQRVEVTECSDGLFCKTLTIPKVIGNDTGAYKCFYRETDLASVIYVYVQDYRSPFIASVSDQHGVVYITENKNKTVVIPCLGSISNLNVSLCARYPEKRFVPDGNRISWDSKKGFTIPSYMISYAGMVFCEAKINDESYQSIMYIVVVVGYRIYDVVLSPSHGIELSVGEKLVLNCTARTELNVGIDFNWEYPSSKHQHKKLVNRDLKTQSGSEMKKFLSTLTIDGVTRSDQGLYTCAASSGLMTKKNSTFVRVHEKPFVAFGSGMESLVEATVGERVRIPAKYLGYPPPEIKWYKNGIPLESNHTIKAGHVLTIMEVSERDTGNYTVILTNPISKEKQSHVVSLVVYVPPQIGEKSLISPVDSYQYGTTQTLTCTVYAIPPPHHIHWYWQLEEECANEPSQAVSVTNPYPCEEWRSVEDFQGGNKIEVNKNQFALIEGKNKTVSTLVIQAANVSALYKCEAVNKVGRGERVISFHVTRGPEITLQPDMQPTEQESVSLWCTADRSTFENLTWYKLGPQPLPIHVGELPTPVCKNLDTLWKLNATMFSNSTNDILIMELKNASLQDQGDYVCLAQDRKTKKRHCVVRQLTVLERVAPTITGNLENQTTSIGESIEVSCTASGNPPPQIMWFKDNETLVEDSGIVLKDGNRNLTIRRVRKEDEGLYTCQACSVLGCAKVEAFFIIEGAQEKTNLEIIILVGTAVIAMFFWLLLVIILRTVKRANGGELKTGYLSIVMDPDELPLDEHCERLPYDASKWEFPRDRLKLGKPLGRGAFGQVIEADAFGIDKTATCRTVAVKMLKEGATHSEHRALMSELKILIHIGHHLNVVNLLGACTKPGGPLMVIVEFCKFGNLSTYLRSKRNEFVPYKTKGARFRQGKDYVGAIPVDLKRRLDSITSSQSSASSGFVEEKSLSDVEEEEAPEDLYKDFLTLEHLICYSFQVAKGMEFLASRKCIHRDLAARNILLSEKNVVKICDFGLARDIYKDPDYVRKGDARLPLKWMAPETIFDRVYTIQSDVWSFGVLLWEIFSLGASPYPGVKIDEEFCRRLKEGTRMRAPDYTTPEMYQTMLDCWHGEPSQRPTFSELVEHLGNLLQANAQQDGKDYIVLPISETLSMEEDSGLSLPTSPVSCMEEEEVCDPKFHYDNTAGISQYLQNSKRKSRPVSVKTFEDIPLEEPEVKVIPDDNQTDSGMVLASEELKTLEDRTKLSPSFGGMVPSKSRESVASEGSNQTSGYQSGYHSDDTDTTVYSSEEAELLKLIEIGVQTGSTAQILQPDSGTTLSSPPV
Description: Once prepared, the solutions were kept on ice until ready to use.
Cells were used 24 h after transfection, and to prepare the cells for the assay, they were washed 3 times with room temperature M199 medium and placed in the refrigerator. […] After incubating at 4° C. for 2 h, the plates were washed 5 times with cold binding buffer, gently blotted dry and checked under a microscope for cell loss. 100 μL of solubilizing solution (2% Triton X-100, 10% Glycerol, 0.1% BSA) was added to each well and the plates were incubated at room temperature for 30 minutes. The solubilizing solution in each well was mixed by pipeting up and down, and transferred to 1.2 mL tubes. Each well was washed twice with 100 μL of solubilizing solution and the washes were added to the corresponding 1.2 mL tube.
After washing the cells, the bound radioactivity was quantitated on a gamma counter.

T2 sequence (P35968 20-764 limits assumed): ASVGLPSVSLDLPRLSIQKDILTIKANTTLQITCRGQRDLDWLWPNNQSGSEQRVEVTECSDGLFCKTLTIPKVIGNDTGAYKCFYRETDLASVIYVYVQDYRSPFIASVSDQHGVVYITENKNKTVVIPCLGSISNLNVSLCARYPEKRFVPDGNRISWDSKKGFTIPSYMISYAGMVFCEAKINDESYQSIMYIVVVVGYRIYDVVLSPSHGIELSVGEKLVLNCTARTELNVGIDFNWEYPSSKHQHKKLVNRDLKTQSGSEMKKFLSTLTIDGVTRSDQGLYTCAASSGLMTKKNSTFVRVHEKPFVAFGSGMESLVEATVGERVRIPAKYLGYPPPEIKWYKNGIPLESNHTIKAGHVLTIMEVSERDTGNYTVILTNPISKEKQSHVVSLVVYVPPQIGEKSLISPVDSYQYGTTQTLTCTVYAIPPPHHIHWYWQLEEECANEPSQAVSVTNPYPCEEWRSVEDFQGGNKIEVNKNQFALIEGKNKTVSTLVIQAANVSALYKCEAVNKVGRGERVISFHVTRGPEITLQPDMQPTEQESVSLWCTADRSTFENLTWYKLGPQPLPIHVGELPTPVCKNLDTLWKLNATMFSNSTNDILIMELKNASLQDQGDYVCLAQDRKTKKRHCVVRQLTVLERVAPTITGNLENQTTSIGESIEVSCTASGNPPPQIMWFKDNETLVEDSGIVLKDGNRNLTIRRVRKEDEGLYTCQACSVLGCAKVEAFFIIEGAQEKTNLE
T1 sequence (P35968 20-1356): as the sequence (P35968 20-1356) above

CC(=O)N[C@@H](C)C(=O)N[C@@H](CCC(N)=O)C(=O)N[C@@H](CCCNC(=N)N)C(=O)NCC(=O)N[C@@H](CC(=O)O)C(=O)N[C@@H](Cc1ccc(O)cc1)C(=O)N[C@@H](CCC(N)=O)C(=O)N[C@@H](CCC(=O)O)C(=O)N[C@@H](CCC(N)=O)C(=O)N[C@@H](Cc1ccc(O)cc1)C(=O)N[C@@H](Cc1c[nH]c2ccccc12)C(=O)N[C@@H](Cc1c[nH]cn1)C(=O)N[C@@H](CCC(N)=O)C(=O)N[C@@H](CCC(N)=O)C(=O)N[C@@H](CC(C)C)C(=O)N[C@H](C(=O)N[C@@H](CCC(=O)O)C(=O)N[C@@H](CCC(N)=O)C(=O)N[C@@H](CC(C)C)C(=O)N[C@@H](CCCCNC(CC(C)C)=C1C(=O)CC(C)(C)CC1=O)C(=O)N[C@@H](CC(C)C)C(=O)N[C@@H](CC(C)C)C(=O)NCC(=O)NCC(=O)NCC(=O)N[C@@H](CCCCN)C(N)=O)C(C)C [P19-E] (Ac-AQRGDYQEQYWHQQLVEQL[Lys(ivDde)]LLGGGK-NH2)
inhibition of KDR activation (KDR; 10 μM): did not produce significant inhibition of KDR activation

CSCC[C@@H]1NC(=O)[C@H](CC(N)=O)NC(=O)[C@H](CO)NC(=O)[C@H](Cc2c[nH]c3ccccc23)NC(=O)CNC(=O)[C@@H](NC(=O)[C@H](CCC(=O)O)NC(=O)[C@H](Cc2c[nH]c3ccccc23)NC(=O)[C@H](CC(N)=O)NC(=O)[C@H](CC(=O)O)NC(=O)CNC(C)=O)CSSC[C@@H](C(=O)N[C@@H](C)C(=O)N[C@@H](CCCNC(=N)N)C(=O)N2CCC[C@H]2C(=O)N[C@@H](CC(=O)O)C(=O)N2CCC[C@H]2C(=O)NCC(=O)NCC(=O)NCC(=O)N[C@@H](CCCCN)C(N)=O)NC(=O)[C@H](Cc2ccccc2)NC(=O)[C@H](CCC(=O)O)NC(=O)[C@H](CCCCNC(CC(C)C)=C2C(=O)CC(C)(C)CC2=O)NC(=O)[C@H](CCC(N)=O)NC(=O)[C@H](Cc2ccccc2)NC1=O [P20-E] (Ac-GDNWECGWSNMFQ[Lys(ivDde)]EFCARPDPGGGK-NH2; disulfide 6-17)
inhibition of KDR activation (KDR; 10 μM): did not produce significant inhibition of KDR activation

CSCC[C@H](NC(=O)[C@H](Cc1ccc(O)cc1)NC(=O)[C@H](Cc1c[nH]c2ccccc12)NC(=O)[C@@H]1CSSC[C@H](NC(=O)[C@@H]2CCCN2C(=O)CNC(=O)[C@@H]2CCCN2C(=O)CNC(=O)[C@H](C)NC(C)=O)C(=O)N[C@@H](CCCCNC(CC(C)C)=C2C(=O)CC(C)(C)CC2=O)C(=O)NCC(=O)N[C@@H](Cc2ccc(O)cc2)C(=O)N[C@@H](CCSC)C(=O)N2CCC[C@H]2C(=O)N[C@@H](Cc2c[nH]cn2)C(=O)N[C@@H](CCC(N)=O)C(=O)N1)C(=O)NCC(=O)N[C@H](C(=O)NCC(=O)NCC(=O)NCC(=O)N[C@@H](CCCCN)C(N)=O)[C@@H](C)O [P21-E] (Ac-AGPGPC[Lys(ivDde)]GYMPHQCWYMGTGGGK-NH2; disulfide 6-14)
inhibition of KDR activation (KDR; 10 μM): did not produce significant inhibition of KDR activation

CC[C@H](C)[C@H](NC(=O)[C@H](Cc1c[nH]c2ccccc12)NC(=O)[C@H](Cc1ccc(O)cc1)NC(=O)[C@H](CC(=O)O)NC(=O)[C@H](CC(=O)O)NC(=O)CNC(=O)CNC(=O)[C@H](Cc1ccccc1)NC(=O)[C@H](CCCNC(=N)N)NC(=O)[C@@H]1CCCN1C(=O)[C@H](Cc1ccccc1)NC(=O)[C@H](C)NC(=O)[C@H](CCC(N)=O)NC(=O)[C@H](C)NC(C)=O)C(=O)N[C@@H](CCC(N)=O)C(=O)N[C@@H](CCC(N)=O)C(=O)N[C@@H](Cc1ccc(O)cc1)C(=O)N[C@@H](CC(C)C)C(=O)N[C@@H](CCCNC(=N)N)C(=O)N[C@@H](Cc1ccc(O)cc1)C(=O)N[C@H](C(=O)N[C@@H](CC(=O)O)C(=O)NCC(=O)NCC(=O)N[C@@H](CCCCNC(=O)CCOCCOCCOCCOCCNC(=O)CON=C(C)CCC(=O)NCCOCCOCCOCCOCCC(=O)NCCCC[C@H](NC(=O)CNC(=O)CNC(=O)[C@H](CC(=O)O)NC(=O)CNC(=O)[C@H](CC(=O)O)NC(=O)[C@H](CCC(=O)O)NC(=O)[C@H](CCC(=O)O)NC(=O)[C@H](Cc1c[nH]cn1)NC(=O)[C@H](Cc1ccc(O)cc1)NC(=O)[C@H](CC(C)C)NC(=O)[C@@H](NC(=O)[C@@H](NC(=O)[C@@H](NC(=O)[C@H](CCC(=O)O)NC(=O)[C@H](Cc1c[nH]c2ccccc12)NC(=O)[C@H](Cc1ccc(O)cc1)NC(=O)[C@H](C)NC(=O)[C@H](Cc1ccc(O)cc1)NC(=O)CNC(=O)[C@H](CCC(=O)O)NC(=O)[C@@H]1CCCN1C(=O)[C@H](CCC(=O)O)NC(=O)[C@H](CCC(N)=O)NC(=O)[C@H](C)NC(C)=O)C(C)C)[C@@H](C)CC)[C@@H](C)O)C(N)=O)C(N)=O)[C@@H](C)O [Tail-to-tail dimer]
increase in affinity over the individual monomer (Soluble KDR receptor): greater than 60 fold
kd,1 (Soluble KDR receptor): 0.00128 s⁻¹
kon (Soluble KDR receptor; pH 7.65, read-out: ka,1): 115000 M⁻¹ s⁻¹

AGDSWCSTEYTYCEMIGT [P4]
competition with 125I-VEGF for binding to KDR-transfected cells [1]: did not compete significantly

AQAFPRFGGDDYWIQQYLRYTDGG [P10]
kd,1 (Soluble KDR receptor): 0.45 s⁻¹
inhibition of KDR activation (KDR; 10 μM): clearly able to partially block the VEGF-induced activation of KDR

AQEPEGYAYWEVITLYHEEDGDGG [P9]
kd,1 (Soluble KDR receptor): 0.00332 s⁻¹

Ac-AGPKWC*EEDWYYC*MITGT-GGGK-NH2 [P5-D]
inhibition of VEGF-induced activation of KDR (KDR): inhibit activation of KDR

Ac-AGPTWC*EDDWYYC*WLFGT-GGGK-(Biotin-JJ-)-NH2 [P12-XB]
percentage inhibition of 125I-labeled VEGF binding ([1]; 0.3 μM peptide): 80.96±3.8%
percentage inhibition of 125I-labeled VEGF binding ([1]; 30 μM peptide): 104.48±2.07%

Ac-AQAFPRFGGDDYWIQQYLRYTDGGK-NH2 [P10-D]
inhibition of VEGF-induced activation of KDR (KDR): inhibit activation of KDR; also recorded: able to largely inhibit the VEGF-induced phosphorylation of KDR

Ac-AQGDYVYWEIIELTGATDHTPPGGGK-NH2 [P11-D]
inhibition at 10 µM (KDR; HUVEC, 10 μM, read-out: inhibition of VEGF-induced KDR phosphorylation): ≥ 50%
inhibition of VEGF-induced activation of KDR (KDR): inhibit activation of KDR

Ac-GDSRVC*WEDSWGGEVC*FRYDPGGGK-NH2 [P6-D]
inhibition of VEGF-induced activation of KDR (KDR): inhibit activation of KDR
